{"source": "patent US12263156B2", "about": "“Use of small molecule inhibitors of the BfrB:Bfd interaction in biofilms” (priority 2020, dated 2025)", "test_system": "P. aeruginosa PAO1 pellicle cells", "experiment": "Total intracellular iron in biofilm-embedded cells", "type": "cell-based, Pseudomonas aeruginosa", "conditions": "24 h; KM-5-25 40 μM, KM-5-66 20 μM", "from_the_text": "Recombinant BfrB (BfrBrec) was used as a standard for the electrophoretic mobility of BfrB. The lane corresponding to untreated control was loaded with 0.5× the volume of the lanes loaded with lysates from treated pellicles to account for the ˜2-fold larger number of viable cells in the untreated pellicles. Lanes loaded with treated pellicle lysates show greater accumulation of iron in BfrB relative to untreated cells. […] (A), (C) and (D) show the average of results from 3 biological replicates, p<0.001 is denoted by *** relative to untreated.\nPellicle biofilms were grown for 48 hours as described above. The pellicles were transferred onto square (2 cm×2 cm) glass coverslips by gently contacting the pellicle with the coverslip. […] Levels of total intracellular iron were determined as reported previously:^23, 86 the cell pellets were treated with 500 μL of freshly prepared digestion reagent (0.6 N HCl, 2.25% (w/v) KMnO4 in water), thoroughly mixed by vortexing, and then incubated at 65° C. for 3.5 hours. […] The iron concentration was measured from the absorbance of the Fe^2+-Ferene S complex (ε593=34.5 mM^−1 cm^−1),^87 normalized by the viable cell counts and reported as Fe atoms per cell. […]", "data": [{"smiles": "O=C1NC(=O)c2c(NCCCc3cc(O)cc(Cl)c3)cccc21", "note": "[KM-5-66]", "values": [{"measurement": "total intracellular iron normalized to viable cell counts, relative to untreated biofilms", "value": "~2.5", "unit": "fold"}]}, {"smiles": "O=C1NC(=O)c2c(NCc3cc(Cl)ccc3O)cccc21", "note": "[KM-5-25]", "values": [{"measurement": "total intracellular iron normalized to viable cell counts, relative to untreated biofilms", "value": "~2.5", "unit": "fold"}]}]}
